Experimental data published in PubChem BioAssay (NCI).
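96-well plates; 48 h exposure; 5 concentrations. Endpoints by linear interpolation between flanking doses. Not reached: highest tested concentration assigned. TGI denotes the concentration required for complete inhibition of growth.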

Columns and labels:
Experiment in all cases: inhibition of tumour cell growth, NCI panel, 48 h
COLO 205 colon = test system: COLO 205 colon
T-47D breast = test system: T-47D breast
A498 renal = test system: A498 renal
UACC-257 melanoma = test system: UACC-257 melanoma
OVCAR-5 ovarian = test system: OVCAR-5 ovarian
SW-620 colon = test system: SW-620 colon
UACC-62 melanoma = test system: UACC-62 melanoma
SK-OV-3 ovarian = test system: SK-OV-3 ovarian
RXF 393 renal = test system: RXF 393 renal
HT29 colon = test system: HT29 colon
SR leukemia = test system: SR leukemia
SK-MEL-5 melanoma = test system: SK-MEL-5 melanoma
HCT-116 colon = test system: HCT-116 colon
SK-MEL-28 melanoma = test system: SK-MEL-28 melanoma
SF-295 CNS = test system: SF-295 CNS
MDA-N = test system: MDA-N
U251 CNS = test system: U251 CNS
HOP-62 NSCLC = test system: HOP-62 NSCLC

Measured: TGI

CCOP(=O)(OCC)/C(C#N)=C/c1c(C)[nH]c2ccccc12
> 100 µM: all assays above

COC(Cc1ccccc1)NC(C)=O (stereo unspecified)
> 100 µM: all assays above
